Converted amounts (≈) assume the structure as drawn. The source made the active and inactive calls. The rule behind the calls is not given here.
Experiments:
[1] = Hemolytic activity in human RBC assessed as hemolytic rate at 2 to 512 ug/ml and measured after 1 hr; type: toxicity, cell-based, Erythrocyte; details: human red blood cells (erythrocytes), at 2 to 512 µg/mL, dose 2-512 µg/ml, read-out: Activity
[2] = tested on: Pseudomonas aeruginosa; assay: Antibacterial activity against Pseudomonas aeruginosa measured after 16 passages by resistance development assay; type: functional, organism-based
[3] = tested on: Pseudomonas aeruginosa; assay: Induction of inner membrane permeabilization in Pseudomonas aeruginosa by measuring increase in fluorescence intensity at 1 to 8 times MIC by calcein-AM/PI staining based fluorescence analysis; type: functional, organism-based
[4] = tested on: Pseudomonas aeruginosa; assay: Bactericidal activity against Pseudomonas aeruginosa assessed as reduction in number of colonies at 0.5 to 2 times MIC measured within 6 hrs by time-kill assay; type: functional, organism-based
[5] = tested on: Staphylococcus aureus; assay: Antibacterial activity against Staphylococcus aureus ATCC 25923 measured by Muller-Hinton broth based microdilution assay; type: functional
[6] = tested on: Pseudomonas aeruginosa; assay: Induction of outer membrane permeabilization in Pseudomonas aeruginosa preincubated for 30 mins at 1 to 8 times MIC measured by NPN fluorescent dye based assay; type: functional, organism-based
[7] = tested on: Acinetobacter baumannii; assay: Antibacterial activity against Acinetobacter baumannii measured by Muller-Hinton broth based microdilution assay; type: functional
[8] = tested on: Pseudomonas aeruginosa; assay: Antibacterial activity against Pseudomonas aeruginosa measured by Muller-Hinton broth based microdilution assay; type: functional
[9] = Hemolytic activity in human RBC measured after 1 hr; type: toxicity, cell-based, Erythrocyte; details: human red blood cells (erythrocytes)
[10] = tested on: Enterococcus faecalis; assay: Antibacterial activity against Enterococcus faecalis measured by Muller-Hinton broth based microdilution assay; type: functional
[11] = tested on: Escherichia coli; assay: Antibacterial activity against Escherichia coli measured by Muller-Hinton broth based microdilution assay; type: functional
[12] = tested on: L929; assay: Cytotoxicity against mouse L929 cells assessed as effect on cell growth at 0.25 to 0.5 ug/ml incubated for 24 hrs by MTT assay; type: toxicity, cell-based; details: l929, 24 h, dose 0.25-0.5 µg/ml
[13] = tested on: Escherichia coli; assay: Antibacterial activity against Escherichia coli ATCC 25922 measured by Muller-Hinton broth based microdilution assay; type: functional
[14] = Selectivity ratio of HC50 for hemolytic activity in human RBC to MIC for antibacterial activity against Pseudomonas aeruginosa; type: toxicity; details: human red blood cells (erythrocytes)
[15] = tested on: Pseudomonas aeruginosa; assay: Disruption of membrane integrity in Pseudomonas aeruginosa assessed as increase in protein leakage by measuring increase in absorbance 1 to 8 times MIC measured for 6 hrs by Bradford assay; type: functional, organism-based
[16] = tested on: Staphylococcus aureus; assay: Antibacterial activity against methicillin-resistant Staphylococcus aureus N315 measured by Muller-Hinton broth based microdilution assay; type: functional
[17] = tested on: Pseudomonas aeruginosa; assay: Induction of oxidative stress in Pseudomonas aeruginosa assessed as decrease in GSH activity at 1 to 8 times MIC measured after 6 hrs by Ellman's assay; type: functional, organism-based
[18] = tested on: Pseudomonas aeruginosa; assay: Antibacterial activity against Pseudomonas aeruginosa assessed as reduction in metabolic activity at 1 to 8 times MIC measured after 6 hrs by Alamar blue assay; type: functional, organism-based
[19] = tested on: Pseudomonas aeruginosa; assay: Inhibition of biofilm formation in Pseudomonas aeruginosa at 1 to 8 times MIC measured after 24 hrs by crystal violet staining method; type: functional, organism-based
[20] = tested on: Pseudomonas aeruginosa; assay: Antibacterial activity against Pseudomonas aeruginosa assessed as reduction in LDH activity at 1 to 8 times MIC measured after 6 hrs by microplate reader method; type: functional; parameters: scale not given: the % may be the effect or the level left
[21] = tested on: Pseudomonas aeruginosa; assay: Antibacterial activity against Pseudomonas aeruginosa ATCC 27853 measured by Muller-Hinton broth based microdilution assay; type: functional
[22] = tested on: Pseudomonas aeruginosa; assay: Antibiofilm activity in Pseudomonas aeruginosa at 1 to 8 times MIC measured by Alamar blue assay; type: functional, organism-based
[23] = tested on: Staphylococcus aureus; assay: Antibacterial activity against Staphylococcus aureus measured by Muller-Hinton broth based microdilution assay; type: functional
[24] = tested on: Staphylococcus aureus; assay: Antibacterial activity against Staphylococcus aureus ATCC 29213 measured by Muller-Hinton broth based microdilution assay; type: functional
[25] = tested on: Pseudomonas aeruginosa; assay: Induction of membrane depolarization in Pseudomonas aeruginosa at 0.5 to 2 times MIC measured upto 1 hr by DiSC35 dye-based fluorescence assay; type: functional, organism-based
[26] = tested on: Pseudomonas aeruginosa; assay: Induction of oxidative stress in Pseudomonas aeruginosa assessed as increase in intracellular ROS level at 1 to 8 times MIC measured after 6 hrs by DCFH-DA staining method; type: functional, organism-based
[27] = tested on: Pseudomonas aeruginosa; assay: Inhibition of bacterial growth of Pseudomonas aeruginosa at 1 to 2 times MIC; type: functional
[28] = tested on: Pseudomonas aeruginosa; assay: Disruption of membrane integrity in Pseudomonas aeruginosa assessed as increase in nucleic acid leakage by measuring increase in absorbance 1 to 8 times MIC measured for 6 hrs by spectrophotometry; type: functional, organism-based
[29] = tested on: Klebsiella pneumoniae; assay: Antibacterial activity against Klebsiella pneumoniae measured by Muller-Hinton broth based microdilution assay; type: functional
[30] = tested on: Pseudomonas aeruginosa; assay: Disruption of membrane integrity in Pseudomonas aeruginosa at 8 times MIC by calcein-AM/PI staining based fluorescence analysis; type: functional, organism-based
[31] = Selectivity ratio of HC50 for hemolytic activity in human RBC to MIC for antibacterial activity against Staphylococcus aureus; type: toxicity; details: human red blood cells (erythrocytes)
[32] = tested on: Staphylococcus aureus; assay: Antibiofilm activity in Staphylococcus aureus at 1 to 8 times MIC measured by Alamar blue assay; type: functional, organism-based
[33] = tested on: Staphylococcus aureus; assay: Induction of oxidative stress in Staphylococcus aureus assessed as decrease in GSH activity at 1 to 8 times MIC measured after 6 hrs by Ellman's assay; type: functional, organism-based
[34] = tested on: Staphylococcus aureus; assay: Induction of inner membrane permeabilization in Staphylococcus aureus by measuring increase in fluorescence intensity at 1 to 8 times MIC by calcein-AM/PI staining based fluorescence analysis; type: functional, organism-based
[35] = tested on: Staphylococcus aureus; assay: Induction of membrane depolarization in Staphylococcus aureus at 0.5 to 2 times MIC measured upto 1 hr by DiSC35 dye-based fluorescence assay; type: functional, organism-based
[36] = tested on: Staphylococcus aureus; assay: Disruption of membrane integrity in Staphylococcus aureus assessed as increase in protein leakage by measuring increase in absorbance 1 to 8 times MIC measured for 6 hrs by Bradford assay; type: functional, organism-based
[37] = tested on: Staphylococcus aureus; assay: Antibacterial activity against Staphylococcus aureus assessed as reduction in LDH activity at 1 to 8 times MIC measured after 6 hrs by microplate reader method; type: functional; parameters: scale not given: the % may be the effect or the level left
[38] = tested on: Staphylococcus aureus; assay: Inhibition of bacterial growth of Staphylococcus aureus at 1 to 2 times MIC; type: functional
[39] = tested on: Staphylococcus aureus; assay: Antibacterial activity against Staphylococcus aureus measured after 16 passages by resistance development assay; type: functional, organism-based
[40] = tested on: Staphylococcus aureus; assay: Bactericidal activity against Staphylococcus aureus assessed as reduction in number of colonies at 0.5 to 2 times MIC measured within 6 hrs by time-kill assay; type: functional, organism-based
[41] = tested on: Staphylococcus aureus; assay: Induction of oxidative stress in Staphylococcus aureus assessed as increase in intracellular ROS level at 1 to 8 times MIC measured after 6 hrs by DCFH-DA staining method; type: functional, organism-based
[42] = tested on: Staphylococcus aureus; assay: Disruption of membrane integrity in Staphylococcus aureus at 8 times MIC by calcein-AM/PI staining based fluorescence analysis; type: functional, organism-based
[43] = tested on: Staphylococcus aureus; assay: Disruption of membrane integrity in Staphylococcus aureus assessed as increase in nucleic acid leakage by measuring increase in absorbance 1 to 8 times MIC measured for 6 hrs by spectrophotometry; type: functional, organism-based
[44] = tested on: Staphylococcus aureus; assay: Inhibition of biofilm formation in Staphylococcus aureus at 1 to 8 times MIC measured after 24 hrs by crystal violet staining method; type: functional, organism-based
[45] = tested on: Staphylococcus aureus; assay: Antibacterial activity against Staphylococcus aureus assessed as reduction in metabolic activity at 1 to 8 times MIC measured after 6 hrs by Alamar blue assay; type: functional, organism-based

With COc1ccc(/C=N/Nc2ccc3c4c(cccc24)C(=O)N(C(CO)CO)C3=O)cc1 the hemolysis at 1 h [1] was under 5%, the Activity [2] was “Active” and the Activity [3] was “Active”. For the same molecule, the Activity [4] was “Active”, the MIC [5] was 64 µg/mL (≈ 153 µM) and the Activity [6] was “Active”. It also gave an MIC [7] of 64 µg/mL (≈ 153 µM), an MIC [8] of 0.5 µg/mL (≈ 1.19 µM) and an HC50 at 1 h [9] of over 1000 µg/mL. For the same molecule, the MIC [10] was 64 µg/mL (≈ 153 µM), the MIC [11] was 16 µg/mL (≈ 38.1 µM) and the Activity [12] was “Non-Toxic”. The MIC [13] was 64 µg/mL (≈ 153 µM), the selectivity ratio [14] was over 2000 and the Activity [15] was “Active”. For the same molecule, the MIC [16] was 64 µg/mL (≈ 153 µM), the Activity [17] was “Active” and the Activity [18] was “Active”. The inhibition [19] was “Active”, the Activity [20] was 70% and the MIC [21] was 2 µg/mL (≈ 4.77 µM). For the same molecule, the Activity [22] was “Active”, the MIC [23] was 32 µg/mL (≈ 76.3 µM) and the MIC [24] was 128 µg/mL (≈ 305 µM). The Activity [25] was “Active”, the Activity [26] was “Active” and the inhibition [27] was “Active”. The Activity [28] was “Active”, the MIC [29] was 32 µg/mL (≈ 76.3 µM) and the Activity [30] was “Active”.

For CCOC(=O)Cn1cc(/C=N/Nc2ccc3c4c(cccc24)C(=O)N(C(CO)CO)C3=O)c2ccccc21, the hemolysis at 1 h [1] was under 5%, the selectivity ratio [31] was over 4000 and the MIC [5] was 32 µg/mL (≈ 62.2 µM). For the same molecule, the MIC [7] was 32 µg/mL (≈ 62.2 µM), the Activity [32] was “Active” and the MIC [8] was 64 µg/mL (≈ 124 µM). For the same molecule, the Activity [33] was “Active”, the HC50 at 1 h [9] was over 1000 µg/mL and the MIC [10] was 64 µg/mL (≈ 124 µM). For the same molecule, the MIC [11] was 64 µg/mL (≈ 124 µM), the Activity [34] was “Active” and the Activity [35] was “Active”. For the same molecule, the Activity [12] was “Non-Toxic”, the MIC [13] was 32 µg/mL (≈ 62.2 µM) and the MIC [16] was 16 µg/mL (≈ 31.1 µM). For the same molecule, the Activity [36] was “Active”, the Activity [37] was 70% and the MIC [21] was 8 µg/mL (≈ 15.5 µM). The inhibition [38] was “Active”, the Activity [39] was “Active” and the MIC [23] was 0.25 µg/mL (≈ 0.486 µM). The Activity [40] was “Active”, the MIC [24] was 8 µg/mL (≈ 15.5 µM) and the Activity [41] was “Active”. The Activity [42] was “Active”, the Activity [43] was “Active” and the inhibition [44] was “Active”. The Activity [45] was “Active” and the MIC [29] was 4 µg/mL (≈ 7.77 µM).

Work on O=C1c2cccc3c(N/N=C/c4nc5ccccc5[nH]4)ccc(c23)C(=O)N1C(CO)CO yielded an MIC [5] of 64 µg/mL (≈ 149 µM), an MIC [7] of 64 µg/mL (≈ 149 µM) and an MIC [8] of 16 µg/mL (≈ 37.3 µM). For the same molecule, the MIC [10] was 64 µg/mL (≈ 149 µM), the MIC [11] was 8 µg/mL (≈ 18.6 µM) and the MIC [13] was 32 µg/mL (≈ 74.5 µM). It also gave an MIC [16] of 64 µg/mL (≈ 149 µM), an MIC [21] of 64 µg/mL (≈ 149 µM) and an MIC [23] of 32 µg/mL (≈ 74.5 µM). It also gave an MIC [24] of 128 µg/mL (≈ 298 µM) and an MIC [29] of 32 µg/mL (≈ 74.5 µM).
